The values that follow come from ChEMBL document CHEMBL1149512, “3-Aryl-4-hydroxyquinolin-2(1H)-one derivatives as type I fatty acid synthase inhibitors” (Bioorg Med Chem Lett, 2006).

Fatty acid synthase (Homo sapiens, UniProt P49327), sequence (P49327 whole entry): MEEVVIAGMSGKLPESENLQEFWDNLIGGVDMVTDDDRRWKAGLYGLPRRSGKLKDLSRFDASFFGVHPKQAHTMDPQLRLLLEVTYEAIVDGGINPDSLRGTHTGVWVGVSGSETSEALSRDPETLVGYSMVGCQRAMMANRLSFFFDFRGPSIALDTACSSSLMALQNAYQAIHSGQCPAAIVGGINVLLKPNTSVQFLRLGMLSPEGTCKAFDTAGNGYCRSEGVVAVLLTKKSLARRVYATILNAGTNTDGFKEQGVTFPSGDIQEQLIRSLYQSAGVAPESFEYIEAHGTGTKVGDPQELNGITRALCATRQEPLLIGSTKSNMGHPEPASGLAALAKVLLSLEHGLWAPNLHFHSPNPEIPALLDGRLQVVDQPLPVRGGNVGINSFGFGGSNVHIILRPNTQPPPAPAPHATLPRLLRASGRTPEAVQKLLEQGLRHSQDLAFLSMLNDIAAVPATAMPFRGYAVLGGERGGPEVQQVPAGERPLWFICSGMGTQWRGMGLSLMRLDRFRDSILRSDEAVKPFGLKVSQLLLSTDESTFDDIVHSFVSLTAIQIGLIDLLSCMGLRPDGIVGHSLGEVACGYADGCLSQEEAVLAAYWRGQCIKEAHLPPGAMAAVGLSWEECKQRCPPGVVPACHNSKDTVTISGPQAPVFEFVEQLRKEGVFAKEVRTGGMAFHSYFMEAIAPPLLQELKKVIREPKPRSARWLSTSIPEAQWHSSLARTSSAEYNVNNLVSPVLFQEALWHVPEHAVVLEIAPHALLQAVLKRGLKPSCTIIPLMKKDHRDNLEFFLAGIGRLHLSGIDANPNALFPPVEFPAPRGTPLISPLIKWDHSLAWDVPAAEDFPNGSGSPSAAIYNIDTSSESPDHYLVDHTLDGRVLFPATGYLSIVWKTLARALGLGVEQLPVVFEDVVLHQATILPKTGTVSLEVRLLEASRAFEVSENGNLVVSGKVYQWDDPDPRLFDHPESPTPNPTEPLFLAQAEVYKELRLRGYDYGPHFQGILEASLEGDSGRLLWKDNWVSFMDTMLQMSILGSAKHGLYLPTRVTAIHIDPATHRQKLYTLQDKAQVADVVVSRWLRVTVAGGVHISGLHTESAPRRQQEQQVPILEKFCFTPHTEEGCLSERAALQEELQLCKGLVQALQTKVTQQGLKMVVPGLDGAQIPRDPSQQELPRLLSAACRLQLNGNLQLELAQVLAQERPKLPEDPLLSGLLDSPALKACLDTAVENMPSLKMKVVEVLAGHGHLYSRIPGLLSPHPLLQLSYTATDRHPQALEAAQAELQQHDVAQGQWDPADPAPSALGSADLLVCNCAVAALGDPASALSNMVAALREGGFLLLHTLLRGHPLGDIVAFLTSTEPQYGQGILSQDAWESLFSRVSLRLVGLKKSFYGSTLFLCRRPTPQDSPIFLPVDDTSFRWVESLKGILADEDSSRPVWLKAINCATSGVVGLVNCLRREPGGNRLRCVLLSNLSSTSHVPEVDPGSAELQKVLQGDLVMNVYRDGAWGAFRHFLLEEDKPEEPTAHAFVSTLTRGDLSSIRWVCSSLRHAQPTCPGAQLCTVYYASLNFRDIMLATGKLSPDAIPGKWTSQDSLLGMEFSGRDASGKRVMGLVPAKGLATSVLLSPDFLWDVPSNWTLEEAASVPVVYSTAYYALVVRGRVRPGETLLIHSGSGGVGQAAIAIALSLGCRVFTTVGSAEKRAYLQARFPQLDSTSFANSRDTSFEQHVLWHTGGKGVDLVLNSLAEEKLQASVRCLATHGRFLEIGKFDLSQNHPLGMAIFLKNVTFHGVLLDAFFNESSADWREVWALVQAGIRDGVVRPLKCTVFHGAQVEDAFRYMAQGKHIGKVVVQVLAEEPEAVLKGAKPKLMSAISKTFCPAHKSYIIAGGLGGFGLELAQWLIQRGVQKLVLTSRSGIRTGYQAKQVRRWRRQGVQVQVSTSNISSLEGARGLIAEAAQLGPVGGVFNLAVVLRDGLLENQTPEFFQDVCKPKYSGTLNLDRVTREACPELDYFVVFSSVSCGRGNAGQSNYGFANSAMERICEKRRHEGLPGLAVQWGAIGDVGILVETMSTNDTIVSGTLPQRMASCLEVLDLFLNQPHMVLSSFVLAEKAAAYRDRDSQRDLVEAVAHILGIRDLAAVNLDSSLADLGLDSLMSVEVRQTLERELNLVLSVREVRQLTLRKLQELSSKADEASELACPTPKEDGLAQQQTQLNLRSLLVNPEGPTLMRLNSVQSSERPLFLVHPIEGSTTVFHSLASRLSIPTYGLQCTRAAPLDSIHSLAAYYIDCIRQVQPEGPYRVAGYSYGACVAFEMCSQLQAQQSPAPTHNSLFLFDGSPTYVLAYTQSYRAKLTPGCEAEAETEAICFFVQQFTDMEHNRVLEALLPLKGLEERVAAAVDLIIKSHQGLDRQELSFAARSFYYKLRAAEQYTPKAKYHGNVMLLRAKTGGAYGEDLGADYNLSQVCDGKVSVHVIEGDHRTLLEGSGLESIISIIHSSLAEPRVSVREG

One assay addresses Fatty acid synthase (Homo sapiens, UniProt P49327). The assay is described as follows: Inhibition of human FAS.
With `N#Cc1cc2c(O)c(-c3cccc(-c4ccc(F)cc4)c3)c(=O)[nH]c2cc1Cl`, the IC50 is 54 nM. This lies in the double-digit nanomolar range.
For `N#Cc1cc2c(Br)c(-c3ccccc3)c(O)nc2cc1Cl`, the IC50 was > 15000 nM.
The compound `N#Cc1cc2c(O)c(-c3cccc(-c4cccnc4)c3)c(=O)[nH]c2cc1Cl` registered an IC50 of 194 nM.
For `N#Cc1cc2c(O)c(-c3ccccc3)c(=O)[nH]c2cc1Cl`, the IC50 was 136 nM.
As for `N#Cc1ccc2[nH]c(=O)c(-c3ccccc3)c(O)c2c1`, the IC50 was found to be 1290 nM.
In the case of `N#Cc1cc2c(Cl)c(-c3ccccc3)c(=O)[nH]c2cc1Cl`, the IC50 was > 15000 nM.
For the compound `COc1ccc(CNc2c(-c3ccccc3)c(=O)[nH]c3cc(Cl)c(C#N)cc23)cc1`, the IC50 was > 15000 nM.
Regarding `N#Cc1cc2c(N)c(-c3ccccc3)c(O)nc2cc1Cl`, the IC50 was > 15000 nM.
Compound `N#Cc1cc(Cl)c2[nH]c(=O)c(-c3ccccc3)c(O)c2c1` showed an IC50 of 402 nM.
`N#Cc1cc2c(O)c(-c3cccc(-c4cc(F)cc(F)c4)c3)c(=O)[nH]c2cc1Cl` returned a half-maximal inhibitory concentration (IC50) of 728 nM. Against the preceding compound, the IC50 is about 1.8-fold higher.
Take `N#Cc1cc2c(O)c(-c3cccc(-c4ccc(F)c(F)c4)c3)c(=O)[nH]c2cc1Cl`: the IC50 worked out at 68 nM.
For the compound `CS(=O)(=O)c1ccc2[nH]c(=O)c(-c3ccccc3)c(O)c2c1`, the IC50 was > 15000 nM.
The same measure, in the same setting: the value for `CS(=O)(=O)c1cccc(-c2c(O)c3cc(C#N)c(Cl)cc3[nH]c2=O)c1` was 4160 nM.
`N#Cc1cc2c(O)c(-c3cccc(-c4csc5ccccc45)c3)c(=O)[nH]c2cc1Cl` displayed an IC50 of 101 nM.
`N#Cc1cc2c(O)c(-c3cccc(-c4ccc5ccccc5c4)c3)c(=O)[nH]c2cc1Cl` returned a half-inhibitory concentration (IC50) of 127 nM. The IC50 values of the last two compounds are within 1.5-fold of each other.
As to `O=c1[nH]c2ccc(S(=O)(=O)C(F)(F)F)cc2c(O)c1-c1ccccc1`, the IC50 was > 15000 nM.
The same measure, in the same setting: next, `O=c1[nH]c2ccc([N+](=O)[O-])cc2c(O)c1-c1ccccc1`: 1400 nM; `O=c1[nH]c2cc(Cl)c([N+](=O)[O-])cc2c(O)c1-c1ccccc1`: 207 nM.
On the same count and under the same terms, the value for `N#Cc1cc2c(O)c(-c3cccc(-c4ccccc4)c3)c(=O)[nH]c2cc1Cl` was 52 nM.
With `N#Cc1cc2c(C#N)c(-c3ccccc3)c(=O)[nH]c2cc1Cl`, the IC50 is > 15000 nM.
Consider `N#Cc1cc2c(NCc3ccccc3)c(-c3ccccc3)c(=O)[nH]c2cc1Cl`, for which the IC50 is > 15000 nM.
The compound `COc1ccccc1-c1cccc(-c2c(O)c3cc(C#N)c(Cl)cc3[nH]c2=O)c1` displayed an IC50 of 19 nM.
Turning to `O=c1[nH]c2ccc(C(F)(F)F)cc2c(O)c1-c1ccccc1`, the IC50 is > 15000 nM.
In the case of `Cn1cc(-c2cccc(-c3c(O)c4cc(C#N)c(Cl)cc4[nH]c3=O)c2)cn1`, it took 734 nM to reach half-maximal inhibition (IC50). This counts as sub-micromolar.

The target in another assay is Fatty acid synthase (Rattus norvegicus, UniProt P12785). Put plainly: Inhibition of rat FAS.
Fatty acid synthase (Rattus norvegicus, UniProt P12785), sequence (P12785 whole entry): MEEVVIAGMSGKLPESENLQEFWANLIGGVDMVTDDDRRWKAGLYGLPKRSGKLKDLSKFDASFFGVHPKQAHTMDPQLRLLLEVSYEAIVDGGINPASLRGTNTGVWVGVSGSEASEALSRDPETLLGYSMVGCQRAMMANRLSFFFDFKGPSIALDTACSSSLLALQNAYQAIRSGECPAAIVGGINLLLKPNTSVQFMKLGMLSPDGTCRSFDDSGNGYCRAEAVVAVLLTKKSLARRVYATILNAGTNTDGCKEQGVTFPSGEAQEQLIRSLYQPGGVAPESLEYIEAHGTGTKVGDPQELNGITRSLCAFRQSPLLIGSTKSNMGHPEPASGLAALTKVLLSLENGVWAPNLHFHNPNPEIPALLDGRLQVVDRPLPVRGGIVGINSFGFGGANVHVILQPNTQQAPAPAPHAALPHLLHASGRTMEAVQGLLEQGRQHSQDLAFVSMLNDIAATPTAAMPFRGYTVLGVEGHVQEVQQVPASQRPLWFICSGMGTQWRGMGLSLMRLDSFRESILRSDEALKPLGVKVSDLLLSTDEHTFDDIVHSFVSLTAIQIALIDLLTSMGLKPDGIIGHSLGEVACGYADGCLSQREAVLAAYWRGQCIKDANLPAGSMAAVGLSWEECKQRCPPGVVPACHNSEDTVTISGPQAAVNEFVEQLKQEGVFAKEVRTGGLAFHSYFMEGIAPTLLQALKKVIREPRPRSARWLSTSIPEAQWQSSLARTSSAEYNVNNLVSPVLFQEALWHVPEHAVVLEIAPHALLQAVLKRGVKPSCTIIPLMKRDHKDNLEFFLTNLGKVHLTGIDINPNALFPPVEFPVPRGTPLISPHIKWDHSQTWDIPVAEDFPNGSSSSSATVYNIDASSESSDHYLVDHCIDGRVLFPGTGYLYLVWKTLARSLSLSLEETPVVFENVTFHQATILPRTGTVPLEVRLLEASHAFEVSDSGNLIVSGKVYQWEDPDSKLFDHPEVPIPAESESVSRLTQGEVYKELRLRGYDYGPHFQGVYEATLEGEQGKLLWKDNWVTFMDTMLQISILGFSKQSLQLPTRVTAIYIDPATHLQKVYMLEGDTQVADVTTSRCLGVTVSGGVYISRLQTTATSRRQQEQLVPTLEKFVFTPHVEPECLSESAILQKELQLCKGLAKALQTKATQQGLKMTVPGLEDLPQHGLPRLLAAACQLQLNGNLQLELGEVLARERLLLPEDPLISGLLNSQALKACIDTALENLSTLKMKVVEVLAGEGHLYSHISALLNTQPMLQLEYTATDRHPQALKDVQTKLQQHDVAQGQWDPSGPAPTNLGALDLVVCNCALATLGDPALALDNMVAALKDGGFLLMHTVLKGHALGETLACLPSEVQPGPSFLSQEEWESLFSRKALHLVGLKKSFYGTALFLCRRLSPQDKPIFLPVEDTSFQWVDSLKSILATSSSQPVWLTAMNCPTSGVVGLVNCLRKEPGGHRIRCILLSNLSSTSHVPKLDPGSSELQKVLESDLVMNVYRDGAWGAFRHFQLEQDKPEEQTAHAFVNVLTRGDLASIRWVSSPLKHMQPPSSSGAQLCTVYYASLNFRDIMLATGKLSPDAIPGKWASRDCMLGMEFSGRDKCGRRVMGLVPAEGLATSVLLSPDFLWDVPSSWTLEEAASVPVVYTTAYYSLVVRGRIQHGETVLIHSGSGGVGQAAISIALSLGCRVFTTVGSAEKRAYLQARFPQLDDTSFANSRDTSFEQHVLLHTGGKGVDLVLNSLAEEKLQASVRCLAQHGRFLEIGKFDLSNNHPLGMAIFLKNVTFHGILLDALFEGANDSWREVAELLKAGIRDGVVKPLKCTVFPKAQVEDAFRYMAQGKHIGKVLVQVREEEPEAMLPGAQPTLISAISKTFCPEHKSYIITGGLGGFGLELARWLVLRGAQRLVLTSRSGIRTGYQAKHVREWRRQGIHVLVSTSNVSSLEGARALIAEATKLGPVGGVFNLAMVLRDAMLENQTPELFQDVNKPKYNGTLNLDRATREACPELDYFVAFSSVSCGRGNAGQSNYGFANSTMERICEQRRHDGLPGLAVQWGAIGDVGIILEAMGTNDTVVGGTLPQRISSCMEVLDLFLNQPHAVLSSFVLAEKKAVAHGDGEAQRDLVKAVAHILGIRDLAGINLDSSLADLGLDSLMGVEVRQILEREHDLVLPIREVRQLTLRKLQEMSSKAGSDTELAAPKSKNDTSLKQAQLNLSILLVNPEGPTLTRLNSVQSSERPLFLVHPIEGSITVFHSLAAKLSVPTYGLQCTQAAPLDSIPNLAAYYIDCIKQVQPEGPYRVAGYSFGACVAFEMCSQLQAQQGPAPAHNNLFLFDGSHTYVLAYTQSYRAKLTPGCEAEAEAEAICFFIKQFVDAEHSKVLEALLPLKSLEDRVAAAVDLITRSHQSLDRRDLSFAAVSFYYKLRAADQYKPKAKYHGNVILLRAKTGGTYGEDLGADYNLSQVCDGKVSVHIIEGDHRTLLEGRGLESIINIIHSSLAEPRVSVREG
On to `O=c1[nH]c2cc(Cl)c([N+](=O)[O-])cc2c(O)c1-c1ccc(OCc2ccccc2)cc1`, for which the IC50 worked out at 86 nM.
`O=c1[nH]c2cc(Cl)c([N+](=O)[O-])cc2c(O)c1-c1cccs1` registered an IC50 of 700 nM.
The same measure, in the same setting: next, `O=c1[nH]c2cc(Cl)c([N+](=O)[O-])cc2c(O)c1-c1cc(F)cc(F)c1`: 172 nM; `O=c1[nH]c2c([N+](=O)[O-])cccc2c(O)c1-c1ccccc1`: 3000 nM.
Same read-out and setting: next, `O=c1[nH]c2cc(F)c([N+](=O)[O-])cc2c(O)c1-c1ccccc1`: 50 nM; `O=C(O)c1ccc2[nH]c(=O)c(-c3ccccc3)c(O)c2c1`: > 15000 nM; `O=c1[nH]c2cc(Cl)c([N+](=O)[O-])cc2c(O)c1-c1ccc(-c2ccccc2)cc1`: 122 nM.
Regarding `O=c1[nH]c2cc(Cl)c([N+](=O)[O-])cc2c(O)c1-c1ccc(Cl)cc1Cl`, the IC50 worked out at 443 nM.
On the same count and under the same terms, the value for `O=c1[nH]c2cc(Cl)c([N+](=O)[O-])cc2c(O)c1-c1cc(Cl)cc(Cl)c1` was 134 nM; that for `CS(=O)(=O)c1ccc2[nH]c(=O)c(-c3ccccc3)c(O)c2c1` was > 15000 nM.
`O=c1[nH]c2cc(Cl)c([N+](=O)[O-])cc2c(O)c1-c1ccc(F)cc1F` yielded an IC50 of 173 nM.
Compound `Cc1cc(-c2c(O)c3cc([N+](=O)[O-])c(Cl)cc3[nH]c2=O)on1` came in with an IC50 of 3400 nM.
In the case of `O=c1[nH]c2ccc(S(=O)(=O)C(F)(F)F)cc2c(O)c1-c1ccccc1`, the IC50 was > 15000 nM.
With `O=c1[nH]c2cc(Cl)c([N+](=O)[O-])cc2c(O)c1-c1ccc2ccccc2c1`, the IC50 worked out at 6000 nM.
On to `O=c1[nH]c2ccc([N+](=O)[O-])cc2c(O)c1-c1ccccc1`, for which the half-maximal inhibitory concentration (IC50) worked out at 550 nM.
With `O=c1[nH]c2cc(Cl)c([N+](=O)[O-])cc2c(O)c1-c1ccccc1`, the IC50 worked out at 73 nM.
`O=c1[nH]c2cc(Cl)c([N+](=O)[O-])cc2c(O)c1-c1nnn[nH]1` displayed an IC50 of 2600 nM.
Consider `O=c1[nH]c2ccccc2c(O)c1-c1ccccc1`, for which the IC50 is > 15000 nM.
For the compound `O=c1[nH]c2ccc(C(F)(F)F)cc2c(O)c1-c1ccccc1`, the IC50 was > 15000 nM.
Turning to `O=c1cc(O)c2cc([N+](=O)[O-])ccc2[nH]1`, the IC50 was > 15000 nM.

Usually IC50 stands for the concentration that gives 50% inhibition. A lower IC50 goes with inhibition by little substance.
